Holding throughout (assay): NCI anticancer screen, dose series, 48 h
Test [1] concerns A549 NSCLC.
Test [2] concerns HOP-92 NSCLC.
The test system of test [3] is SF-539 CNS.
The test system of test [4] is CAKI-1 renal.
The test system of test [5] is NCI-H23 lung.
The subject of test [6] is NCI-H460 lung.
For test [7], the system named is COLO 205 colon.
In test [8] the test system is HL-60(TB) leukemia.
Test [9] relates to ACHN renal.

The results in this text go back to PubChem BioAssay (NCI).

Each structure is given as a SMILES string.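 96-well plates; 48 h exposure; 5 concentrations. Endpoints by linear interpolation between flanking doses. Not reached: highest tested concentration assigned. TGI is the concentration that stops growth completely.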 Bounds are passed on as bounds.

As for `CCCCCCCC(=O)OCC1OC(n2cc(F)c(=O)[nH]c2=O)C(N)C(OC(=O)CCCCCCC)C1O` (stereo not drawn), the TGI in [1] is 32.3 µM; in test [2], 34.3 µM; in test [3] it was 36.1 µM; in test [4], 41.5 µM; in test [5] it was 35.9 µM; in test [6] it was 34.8 µM. In addition, the figures for the TGI in test [7], in test [8] and in test [9] were 34 µM, 42.3 µM and 37.9 µM, respectively.
With `COc1cc(OC)c(OC)cc1/C=N/NC(=O)N/N=C/c1cc(OC)c(OC)cc1OC`, the TGI in test [1], in [2], in [3], in test [5], in test [6] and in test [7] was greater than 100 µM each time. The molecule also yielded a TGI in test [9] greater than 100 µM.
For the molecule `O=C1C/C(Br)=C\c2ccccc2-c2ccccc21`, the TGI is 21.8 µM in test [1]; 5.27 µM in [2]; 4.85 µM in [3]; 5.86 µM in [4]; 9.56 µM in test [5]; 10.4 µM in test [6]. The TGI in test [7] came out at 12.4 µM; in [8], 5.7 µM; in [9], 4.5 µM.
In the case of `O/N=C1\CCCCC1C(NO)c1ccccc1` (stereo not drawn), the TGI in test [1], in test [2], in test [3], in test [5], in test [6] and in test [7] was greater than 100 µM in each case. For the same molecule, the TGI in test [8] and in test [9] was greater than 100 µM in each case.
Regarding `CCC(C)(C)n1c(C)nc2c1C(=O)c1ccccc1C2=O`, the TGI is greater than 100 µM in test [1]; greater than 100 µM in test [3]; 60.4 µM in test [5]; 29 µM in test [6]; 46.2 µM in test [7]; 47.9 µM in test [8]. In addition, the TGI in test [9] is greater than 100 µM.
As to `CCOc1ccc(OCC(=O)O)c2c1CCCC2=O`, the TGI in test [1], in test [2], in test [3], in test [5], in test [6] and in test [7] was greater than 100 µM throughout. In addition, the TGI in test [8] and in test [9] was greater than 100 µM throughout.
On to `C[N+](C)(C)CC(=O)N/N=C(/Cc1cc(=O)oc2cc(O)ccc12)C(=O)Nc1ccc(Cl)cc1`, for which the TGI in test [1], in [3], in test [4], in test [5], in test [6] and in test [7] was greater than 100 µM throughout. Besides, the TGI in [8] and in [9] was greater than 100 µM each time.
Consider `COc1ccc(NC(=O)CSc2nnc(-c3ccc(NC(C)=O)cc3)o2)cc1`, for which the TGI is 45.3 µM in test [1]; 23.2 µM in [5]; 34 µM in test [6]; 36.8 µM in test [7]; 50.9 µM in test [8]; 31.1 µM in test [9].
On to `O=Cc1cc2c(cc1-c1cc3c(cc1C=O)OCO3)OCO2`, for which the TGI in [1], in [2], in test [3], in test [4], in test [5] and in test [6] was greater than 100 µM throughout. The TGI in test [7], in [8] and in test [9] was greater than 100 µM in each case.
On to `CC(=O)N/C(=C\c1ccccc1/C=C(\NC(C)=O)c1nc2cc(C)c(C)cc2[nH]1)c1nc2cc(C)c(C)cc2[nH]1`, for which the TGI is greater than 100 µM in [1]; 62.1 µM in test [2]; 44.3 µM in test [3]; 78.1 µM in [4]; 94.9 µM in test [5]; 97.9 µM in [6]. Besides, the TGI in test [7] is greater than 100 µM; in [9] it was 28.4 µM.
Consider `O=C1C=C(c2c(O)ccc3ccccc23)c2cc(O)ccc2C1=O`, for which the TGI came to 36.7 µM in [1]; 31.9 µM in test [2]; 39.3 µM in [3]; 40.1 µM in [4]; 29.7 µM in [5]; 44.7 µM in [6]. The TGI in test [7] worked out at 40 µM; in [9], 31.5 µM.
For the molecule `C/C(=N\NC(N)=O)c1sc(-c2nc(C)c(/C(C)=N/NC(N)=O)s2)nc1C`, the TGI in test [1], in test [2], in test [3], in test [4], in test [5] and in test [6] was greater than 100 µM throughout. For the same molecule, the TGI in test [7], in test [8] and in test [9] was greater than 100 µM throughout.
In the case of `Cc1nc2c(N)ncnc2o1`, the TGI in [1], in test [2], in test [3], in [4], in test [5] and in test [6] was greater than 100 µM throughout. In addition, the TGI in test [7], in test [8] and in test [9] was greater than 100 µM throughout.
Consider `CCOc1ccc(NC(=O)CC2SC(=Nc3ccc(C)cc3C)NC2=O)cc1` (stereo not drawn), for which the TGI in test [1] was greater than 100 µM; in test [2], greater than 100 µM; in test [3], 63.7 µM; in test [4], greater than 100 µM; in test [5] it was greater than 100 µM; in [6], greater than 100 µM. Besides, the TGI in test [8] and in test [9] was greater than 100 µM each time.
For `CN(C)CCNC(=O)Cc1ccccc1Nc1c(Cl)cccc1Cl`, the TGI in [1] is 36 µM; in test [3], 31.5 µM; in [5] it was 33.4 µM; in test [6], 24.7 µM; in test [7] it was 30.6 µM; in test [8], 36.1 µM. In test [9], this molecule gave a TGI of 33.3 µM.
In the case of `c1ccc2c(c1)CCc1c(-c3ccncc3)n[nH]c1-2`, the TGI in test [1] was greater than 100 µM; in [3], greater than 100 µM; in test [4] it was 73.4 µM; in test [5], 58.3 µM; in test [6], greater than 100 µM; in test [7] it was 63.3 µM. In addition, the TGI is 88.8 µM in [8] and greater than 100 µM in test [9].
